Experimental data as given in ChEMBL document CHEMBL1201862, “PubChem BioAssay data set” (2004).
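Where inhibition never reached the appropriate level, the endpoint shown equals the highest concentration tested. Otherwise, values were interpolated linearly from a five-concentration, 48-hour dose response in 96-well plates. Here, GI50 denotes the concentration required for 50% inhibition of growth.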 Activity calls are given as the source filed them. Cut-off read from the data, not from the text of the source: active = GI50 up to about 1.1 µM and inactive = higher.

What was measured:
Assay in all cases: growth of human tumour cells (NCI), 48 h
HOP-62 = tested on: HOP-62
A549 = tested on: A549
OVCAR-8 = tested on: OVCAR-8
COLO 205 = tested on: COLO 205
SK-OV-3 = tested on: SK-OV-3
NCI/ADR-RES = tested on: NCI/ADR-RES
UACC-62 = tested on: UACC-62
SW-620 = tested on: SW-620
HCT-116 = tested on: HCT-116
SNB-19 = tested on: SNB-19
SNB-75 = tested on: SNB-75
NCI-H460 = tested on: NCI-H460
OVCAR-4 = tested on: OVCAR-4
MDA-N = tested on: MDA-N
HT-29 = tested on: HT-29
K562 = tested on: K562
KM12 = tested on: KM12
T47D = tested on: T47D
HCC 2998 = tested on: HCC 2998
ACHN = tested on: ACHN

Row | Structure (SMILES) | GI50 (HOP-62) | GI50 (A549) | GI50 (OVCAR-8) | GI50 (COLO 205) | GI50 (SK-OV-3) | GI50 (NCI/ADR-RES) | GI50 (UACC-62) | GI50 (SW-620) | GI50 (HCT-116) | GI50 (SNB-19) | GI50 (SNB-75) | GI50 (NCI-H460) | GI50 (OVCAR-4) | GI50 (MDA-N) | GI50 (HT-29) | GI50 (K562) | GI50 (KM12) | GI50 (T47D) | GI50 (HCC 2998) | GI50 (ACHN)
1 | COc1cc(-c2nc3ccccn3c2/N=C/c2cc(Br)cc(Br)c2O)ccc1O | 21.6 µM (inactive) | > 100 µM (inactive) | 23.4 µM (inactive) | 26.9 µM (inactive) | 23.9 µM (inactive) | 22 µM (inactive) | 27 µM (inactive) | 26.4 µM (inactive) | 18.4 µM (inactive) | 26.1 µM (inactive) | 24 µM (inactive) | 35.1 µM (inactive) | 19.4 µM (inactive) | 22.4 µM (inactive) | 22.3 µM (inactive) | 28.6 µM (inactive) | 24.2 µM (inactive) | 23.3 µM (inactive) | 79.6 µM (inactive) | 48.8 µM (inactive)
2 | CN(C)c1nc(N(C)C)nc(N(C)C)n1 [ALTRETAMINE] | 139 µM (inactive) | > 147 µM (inactive) | > 150 µM (inactive) | > 148 µM (inactive) | > 150 µM (inactive) | > 114 µM (inactive) | > 150 µM (inactive) | > 150 µM (inactive) | > 150 µM (inactive) | > 144 µM (inactive) | 130 µM (inactive) | > 124 µM (inactive) | > 143 µM (inactive) | > 150 µM (inactive) | > 150 µM (inactive) | > 148 µM (inactive) | > 150 µM (inactive) | > 150 µM (inactive) | > 123 µM (inactive) | > 150 µM (inactive)
3 | CCCCCCCCCCC(O)C1CCC(C2CCC(C(O)CCCCC(O)CCCCCC(O)CC3=CC(C)OC3=O)O2)O1 (stereo not given) | > 25 µM (inactive) | > 20.9 µM (inactive) | 4.51 µM (inactive) | > 25 µM (inactive) | > 25 µM (inactive) | 2.46 µM (inactive) | 1.2 µM (inactive) | > 25 µM (inactive) | 0.748 µM (active) | > 25 µM (inactive) | 5.16 µM (inactive) | 6.93 µM (inactive) | > 25 µM (inactive) | 3.86 µM (inactive) | 3.21 µM (inactive) | > 6.9 µM (inactive) | 3.78 µM (inactive) | > 11.8 µM (inactive) | > 25 µM (inactive) | > 25 µM (inactive)
4 | COc1ccc2[nH]c3cc4c(=O)c5cc(OC)ccc5[nH]c4cc3c(=O)c2c1 | 69.5 µM (inactive) | > 100 µM (inactive) | > 100 µM (inactive) | > 100 µM (inactive) | > 100 µM (inactive) | > 100 µM (inactive) | > 100 µM (inactive) | > 100 µM (inactive) | > 100 µM (inactive) | > 100 µM (inactive) | 26.9 µM (inactive) | > 100 µM (inactive) | > 100 µM (inactive) | > 100 µM (inactive) | > 100 µM (inactive) | > 100 µM (inactive) | > 100 µM (inactive) | > 100 µM (inactive) | > 100 µM (inactive) | > 100 µM (inactive)
5 | CSc1ccn(C2CC(F)C(CO)O2)c(=O)n1 (stereo not given) | > 100 µM (inactive) | > 100 µM (inactive) | > 100 µM (inactive) | > 100 µM (inactive) | > 100 µM (inactive) | > 100 µM (inactive) | > 100 µM (inactive) | > 100 µM (inactive) | > 100 µM (inactive) | > 100 µM (inactive) | > 100 µM (inactive) | > 100 µM (inactive) | > 100 µM (inactive) | > 100 µM (inactive) | > 100 µM (inactive) | > 100 µM (inactive) | > 100 µM (inactive) | > 100 µM (inactive) | > 100 µM (inactive) | > 100 µM (inactive)
6 | N=C(N)NS(=O)(=O)c1ccc(N/N=C2/CCOC2=O)cc1 | 26.6 µM (inactive) | > 100 µM (inactive) | 49.5 µM (inactive) | > 100 µM (inactive) | 40.6 µM (inactive) | > 100 µM (inactive) | > 100 µM (inactive) | > 100 µM (inactive) | > 100 µM (inactive) | > 100 µM (inactive) | 21.7 µM (inactive) | > 100 µM (inactive) | > 100 µM (inactive) | > 100 µM (inactive) | > 100 µM (inactive) | 45.3 µM (inactive) | > 100 µM (inactive) | 49.1 µM (inactive) | > 100 µM (inactive) | 63.5 µM (inactive)
